In patent US11028095B2, “Spiro-lactam and bis-spiro-lactam NMDA receptor modulators and uses thereof” (Aptinyx Inc., priority 2016, dated 2021):
Like-named read-outs stand apart in the source and are kept apart here.

Assays:
[1] = biological target: T1, NMDAR2A expressing HEK cell membranes (Homo sapiens, UniProt Q05586+Q12879); experiment: NMDAR agonist assay, [3H]MK-801 binding, NMDAR2A; type: biochemical; details: for EC50: [3H]MK-801 binding; for Emax: relative to 1 mM glycine, read-out: NMDAR2A: % maximal [3H]MK-801 binding relative to 1 mM glycine
T1 construct: expressed in transfected cells; host or cells: HEK cells (membrane extract)
Protocol: (§1) (nonequilibrium conditions).
(§2) The baseline value was determined from the best fit curve of the DPM values modeled using the GraphPad program and the log(agonist) vs. response(three parameters) algorithm was then subtracted from all points in the dataset.

[2] = biological target: T2, NMDAR2A expressing HEK cell membranes (Homo sapiens, UniProt Q12879); experiment: NMDAR agonist assay, [3H]MK-801 binding, NMDAR2A; type: biochemical; details: 50 μM glutamate; relative to 1 mM glycine
T2 construct: expressed in transfected cells; host or cells: HEK cells (membrane extract)
Protocol: as §1, §2

[3] = biological target: T3, NMDAR2B expressing HEK cell membranes (Homo sapiens, UniProt Q05586+Q13224); experiment: NMDAR agonist assay, [3H]MK-801 binding, NMDAR2B; type: biochemical; details: for EC50: [3H]MK-801 binding; for Emax: relative to 1 mM glycine, read-out: NMDAR2B: % maximal [3H]MK-801 binding relative to 1 mM glycine
T3 construct: expressed in transfected cells; host or cells: HEK cells (membrane extract)
Protocol: as §1, §2

[4] = biological target: T4, NMDAR2B expressing HEK cell membranes (Homo sapiens, UniProt Q13224); experiment: NMDAR agonist assay, [3H]MK-801 binding, NMDAR2B; type: biochemical; details: 50 μM glutamate; relative to 1 mM glycine
T4 construct: expressed in transfected cells; host or cells: HEK cells (membrane extract)
Protocol: as §1, §2

[5] = system: positive (hedonic) 50-kHz ultrasonic vocalizations (USVs); experiment: Positive Emotional Learning (PEL) test; type: in vivo; details: rat, PO, dose 0.1 mg/kg, one hour after administration
Protocol: Experiments were conducted as described in Burgdorf et al., “The effect of selective breeding for differential rates of 50-kHz ultrasonic vocalizations on emotional behavior in rats,” Devel. […] Rat 50-kHz ultrasonic vocalization (hedonic USVs) is a validated model for the study of positive affective state and is best elicited by rough-and-tumble play.
The PEL assay measures the acquisition of positive (hedonic) 50-kHz ultrasonic vocalizations (USVs) to a social stimulus, heterospecific rough and tumble play stimulation. Heterospecific rough-and-tumble play stimulation was administered by the experimenter's right hand. One hour after administration of test compound or vehicle negative control (0.5% sodium carboxymethyl cellulose in 0.9% sterile saline vehicle), animals received 3 min of heterospecific rough-and-tumble play that consisted of alternating 15 sec blocks of heterospecific play and 15 sec of no-stimulation. […] Frequency modulated 50-kHz USVs that occurred during each of the no-stimulation periods were quantified to measure PEL. Animals were not habituated to play stimulation before testing. Positive emotional learning was measured during the conditioned stimulus (CS) trials preceding the tickle unconditioned stimulus (UCS) trials. Animals received 15 second trials consisting of 6 CS and 6 UCS trials each (3 min total).

[6] = Microsomal stability (Human); type: in vitro ADME; details: human microsomes
Protocol: (§3) Microsomal stability of disclosed compounds was investigated. The following table indicates the percent of compound remaining after 60 minutes.

[7] = Microsomal stability (Rat); type: in vitro ADME; details: rat microsomes
Protocol: as §3

[8] = Plasma stability (Human); type: in vitro ADME
Protocol: (§4) Plasma stability of disclosed compounds was investigated. The following table indicates the percent of compound remaining after 60 minutes.

[9] = Plasma stability (Rat); type: in vitro ADME
Protocol: as §4

[10] = IV pharmacokinetics; type: in vivo; details: Sprague Dawley, rat, in vivo, iv, 2 mg/kg, Sprague Dawley rats, normal saline
Protocol: Sprague Dawley rats were dosed intravenously using a normal saline formulation containing 2 mg/kg of the compounds identified in the below table. The table below summarizes the results of the IV pharmacokinetics.

[11] = Oral pharmacokinetics (plasma, brain, CSF); type: in vivo; details: Sprague Dawley rats, per os, 10 mg/kg
Protocol: In another experiment, Sprague Dawley rats were dosed per os using a normal saline formulation containing 10 mg/kg of the compounds identified in the table below. Plasma, brain, and CSF samples were analyzed at various time points over a 24 hour period. The table below summarizes the results of the oral pharmacokinetics.

[12] = biological target: T5, NMDAR2D expressing HEK cell membranes (Homo sapiens, UniProt O15399+Q05586); experiment: NMDAR agonist assay, [3H]MK-801 binding, NMDAR2D; type: biochemical; details: 50 μM glutamate; for EC50: [3H]MK-801 binding, read-out: NMDAR2D: log EC50 (converted); for Emax: relative to 1 mM glycine, read-out: NMDAR2D: % maximal [3H]MK-801 binding relative to 1 mM glycine
T5 construct: expressed in transfected cells; host or cells: HEK cells (membrane extract)
Protocol: as §1, §2

[13] = 50 μM glutamate, read-out: NMDAR2A: log EC50 (converted)
[14] = 50 μM glutamate, read-out: NMDAR2B log EC50 (converted)
[15] = NMDAR2A: log EC50, 50 μM glutamate
[16] = NMDAR2B: log EC50, 50 μM glutamate
[17] = Sprague Dawley, rat, plasma, po

T3 sequence (Q13224 27-1484, other chains not shown): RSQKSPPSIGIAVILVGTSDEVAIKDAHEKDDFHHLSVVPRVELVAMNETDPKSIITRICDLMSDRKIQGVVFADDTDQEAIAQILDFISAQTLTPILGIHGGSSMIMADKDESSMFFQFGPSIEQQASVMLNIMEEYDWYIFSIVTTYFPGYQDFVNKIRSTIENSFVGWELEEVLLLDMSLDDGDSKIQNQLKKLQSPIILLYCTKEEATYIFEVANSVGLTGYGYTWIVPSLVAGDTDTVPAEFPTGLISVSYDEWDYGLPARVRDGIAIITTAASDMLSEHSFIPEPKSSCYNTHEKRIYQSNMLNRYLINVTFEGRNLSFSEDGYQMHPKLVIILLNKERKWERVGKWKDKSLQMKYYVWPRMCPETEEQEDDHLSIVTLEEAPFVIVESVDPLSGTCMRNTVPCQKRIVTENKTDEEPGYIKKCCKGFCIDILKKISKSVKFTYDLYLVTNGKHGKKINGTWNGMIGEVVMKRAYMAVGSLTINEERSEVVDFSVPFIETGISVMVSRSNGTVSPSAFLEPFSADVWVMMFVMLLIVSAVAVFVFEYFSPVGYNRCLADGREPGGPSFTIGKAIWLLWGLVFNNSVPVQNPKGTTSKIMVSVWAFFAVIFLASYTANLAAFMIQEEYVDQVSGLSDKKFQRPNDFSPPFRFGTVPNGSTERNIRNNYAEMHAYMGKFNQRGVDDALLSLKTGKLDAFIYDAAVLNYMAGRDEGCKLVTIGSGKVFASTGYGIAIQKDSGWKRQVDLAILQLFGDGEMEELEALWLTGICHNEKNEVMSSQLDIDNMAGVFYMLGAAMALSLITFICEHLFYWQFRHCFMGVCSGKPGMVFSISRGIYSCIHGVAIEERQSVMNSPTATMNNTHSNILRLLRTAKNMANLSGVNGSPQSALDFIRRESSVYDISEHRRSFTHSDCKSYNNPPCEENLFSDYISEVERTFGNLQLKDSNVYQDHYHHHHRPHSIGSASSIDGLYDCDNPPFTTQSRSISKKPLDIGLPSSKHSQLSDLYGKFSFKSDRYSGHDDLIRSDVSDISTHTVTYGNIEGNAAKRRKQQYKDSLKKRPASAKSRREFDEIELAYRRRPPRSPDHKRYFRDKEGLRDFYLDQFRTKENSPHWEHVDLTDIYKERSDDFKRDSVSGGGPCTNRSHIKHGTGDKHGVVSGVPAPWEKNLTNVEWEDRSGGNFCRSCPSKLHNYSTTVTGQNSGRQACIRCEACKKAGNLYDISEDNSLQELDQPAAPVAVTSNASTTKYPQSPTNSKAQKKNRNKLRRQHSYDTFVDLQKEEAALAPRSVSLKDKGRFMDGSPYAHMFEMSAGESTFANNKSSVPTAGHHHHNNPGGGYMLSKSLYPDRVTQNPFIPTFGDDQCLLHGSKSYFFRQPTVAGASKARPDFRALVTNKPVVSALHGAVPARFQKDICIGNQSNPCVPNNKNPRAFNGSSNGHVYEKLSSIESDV
T4 sequence (Q13224 27-1484, other chains not shown): as above
T5 sequence (O15399 28-1336, other chains not shown): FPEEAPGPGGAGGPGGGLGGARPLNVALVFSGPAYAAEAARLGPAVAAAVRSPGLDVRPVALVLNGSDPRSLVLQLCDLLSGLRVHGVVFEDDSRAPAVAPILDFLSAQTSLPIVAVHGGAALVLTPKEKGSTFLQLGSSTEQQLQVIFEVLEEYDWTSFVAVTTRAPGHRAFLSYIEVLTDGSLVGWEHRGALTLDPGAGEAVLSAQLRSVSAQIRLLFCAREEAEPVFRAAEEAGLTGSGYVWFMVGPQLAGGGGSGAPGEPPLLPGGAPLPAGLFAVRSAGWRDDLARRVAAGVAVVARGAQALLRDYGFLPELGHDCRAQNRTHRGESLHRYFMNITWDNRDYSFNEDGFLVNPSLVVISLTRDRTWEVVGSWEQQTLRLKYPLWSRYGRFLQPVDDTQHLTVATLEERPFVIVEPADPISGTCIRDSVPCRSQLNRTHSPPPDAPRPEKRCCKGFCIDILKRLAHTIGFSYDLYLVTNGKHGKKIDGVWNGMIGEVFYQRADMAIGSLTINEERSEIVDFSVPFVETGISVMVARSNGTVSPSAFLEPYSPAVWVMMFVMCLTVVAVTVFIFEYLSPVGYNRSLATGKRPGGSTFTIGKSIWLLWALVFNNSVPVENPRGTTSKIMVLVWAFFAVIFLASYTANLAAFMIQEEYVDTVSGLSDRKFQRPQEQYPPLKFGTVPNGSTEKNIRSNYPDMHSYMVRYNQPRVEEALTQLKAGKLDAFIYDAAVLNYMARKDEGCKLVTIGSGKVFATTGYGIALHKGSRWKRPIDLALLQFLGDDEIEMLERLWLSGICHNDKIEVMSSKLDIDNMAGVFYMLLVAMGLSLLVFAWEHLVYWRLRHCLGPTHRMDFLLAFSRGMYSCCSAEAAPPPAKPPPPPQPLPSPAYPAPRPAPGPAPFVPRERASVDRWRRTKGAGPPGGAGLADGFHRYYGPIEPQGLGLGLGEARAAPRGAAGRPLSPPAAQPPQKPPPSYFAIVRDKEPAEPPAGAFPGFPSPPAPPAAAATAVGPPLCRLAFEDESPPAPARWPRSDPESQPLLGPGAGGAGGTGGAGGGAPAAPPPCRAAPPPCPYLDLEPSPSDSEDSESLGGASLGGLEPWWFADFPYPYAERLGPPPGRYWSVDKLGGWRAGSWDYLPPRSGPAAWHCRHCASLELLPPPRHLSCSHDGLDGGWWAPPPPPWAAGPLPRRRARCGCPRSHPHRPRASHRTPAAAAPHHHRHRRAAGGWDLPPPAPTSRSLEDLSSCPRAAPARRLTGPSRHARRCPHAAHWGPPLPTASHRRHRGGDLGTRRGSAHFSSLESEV

EC50 [1, 13] [nM] | NMDAR2A: % maximal [3H]MK-801 binding relative to 1 mM glycine [2] | EC50 [3, 14] [nM] | NMDAR2B: % maximal [3H]MK-801 binding relative to 1 mM glycine [4] | Structure (SMILES) | also measured
< 1 | + (<100%=+) | < 1 | ++ (>100%=++) | CC(O)C(C(N)=O)N(C)CC1CCC2(CNC2=O)N1 (single isomer, unassigned) [CV] | –
> 100 | − (−=0) | < 1 | + (<100%=+) | CC(C)(C)OC(=O)N1CC2(CN(OCc3ccccc3)C2=O)CC12CN(OCc1ccccc1)C2=O (single isomer, unassigned) [AV, tert-butyl 2,8-bis(benzyloxy)-1,7-dioxo-2,8,10-triazadispiro[3.1.36.24]undecane-10-carboxylate] | –
> 100 | – | < 1 | – | CC(=O)N1C(C(=O)N[C@H](C(N)=O)[C@@H](C)O)CCC12CNC2=O (stereo partly drawn) [AO, 5-acetyl-N-((2S,3R)-1-amino-3-hydroxy-1-oxobutan-2-yl)-1-oxo-2,5-diazaspiro[3.4]octane-6-carboxamide] | Max Effect (mean number of 50 kHz USVs per 15 seconds) [5]: ** (**: 11-16.9); Microsomal (Human): percent of compound remaining after 60 minutes [6]: 100%; Microsomal (Rat): percent of compound remaining after 60 minutes [7]: 100%; Plasma (Human): percent of compound remaining after 60 minutes [8]: 100%; Plasma (Rat): percent of compound remaining after 60 minutes [9]: 93%; Emax ([1]; 50 μM glutamate): 0%; Emax ([3]; 50 μM glutamate): < 100%; AUC(0-t) [10]: 4430 ng·h/mL; clearance [10]: 7.59 mL/min/kg; half-life [10]: 130 min; C0 ([10]; read-out: C0): 11900 ng/mL; Vd ([10]; read-out: Vss): 0.22 L/kg; CSF Cmax ([11]; CSF): 17.89 ng/mL; Brain Cmax ([11]; brain): 0 ng/mL; AUC(0-t) [11, 17]: 1320 ng·h/mL; bioavailability [11, 17]: 6%; Tmax ([11]; Sprague Dawley, rat, plasma, po, normal saline, read-out: Tmax): 2.67 h; Cmax ([11]; Sprague Dawley, rat, plasma, po, plasma, read-out: Cmax): 247 ng/mL
< 1 | – | > 100 | − (−=0) | CC(C)CN1C(C(=O)N[C@H](C(N)=O)[C@@H](C)O)CCC12CNC2=O (single isomer, unassigned) [BA] | Emax ([1]; 50 μM glutamate): < 100%; EC50 [12]: < 1 nM; Emax [12]: < 100%
> 100 | − (−=0) | < 1 | + (<100%=+) | O=C1NCC12CN(Cc1ccccc1)C1(CNC1=O)C2 (single isomer, unassigned) [DQ, 10-benzyl-2,8,10-triazadispiro[3.1.3^6.2^4]undecane-1,7-dione] | –
< 1 | + (<100%=+) | > 100 | − (−=0) | C[C@@H](O)[C@H](NCC1CCC2(CNC2=O)N1C(=O)OC(C)(C)C)C(=O)N(C)C (single isomer, unassigned) [BT] | –
< 1 | + (<100%=+) | < 1 | + (<100%=+) | O=C1NCC12CN(Cc1ccccc1)C1(CNC1=O)C2 (single isomer, unassigned) [DR, 10-benzyl-2,8,10-triazadispiro[3.1.3^6.2^4]undecane-1,7-dione] | –
< 1 | + (<100%=+) | < 1 | + (<100%=+) | CC(C)(C)OC(=O)N1C(C(N)=O)CCC12CNC2=O (single isomer, unassigned) [BF] | –

Second part, the compound before the results:

Structure (SMILES) | EC50 [1, 13] [nM] | NMDAR2A: % maximal [3H]MK-801 binding relative to 1 mM glycine [2] | EC50 [3, 14] [nM] | NMDAR2B: % maximal [3H]MK-801 binding relative to 1 mM glycine [4] | also measured
O=C1NCC12CCC1(CNC1=O)N2 (single isomer, unassigned) [AK, 2,5,8-triazadispiro[3.1.36.24]undecane-1,7-dione] | – | − (−=0) | – | − (−=0) | EC50 [1, 15]: > 100 nM; EC50 [3, 16]: > 100 nM
O=C1NCC12CN(Cc1ccccc1)C1(CNC1=O)C2 (single isomer, unassigned) [DP, 10-benzyl-2,8,10-triazadispiro[3.1.3^6.2^4]undecane-1,7-dione] | < 1 | + (<100%=+) | < 1 | ++ (>100%=++) | –
CN1C2(CCC13CNC3=O)CNC2=O (single isomer, unassigned) [AB-1, 5-methyl-2,5,8-triazadispiro[3.1.36.24]undecane-1,7-dione] | – | + (<100%=+) | – | − (−=0) | EC50 [1, 15]: < 1 nM; EC50 [3, 16]: > 100 nM
O=C1NCC12CN(Cc1ccccc1)C1(CNC1=O)C2 (single isomer, unassigned) [DO, 10-benzyl-2,8,10-triazadispiro[3.1.3^6.2^4]undecane-1,7-dione] | < 1 | + (<100%=+) | > 100 | − (−=0) | –
C[C@@H](O)[C@H](NCC1CCC2(CNC2=O)N1C(=O)OC(C)(C)C)C(=O)N(C)C (single isomer, unassigned) [BS] | > 100 | − (−=0) | < 1 | + (<100%=+) | –
CC(C)(C)OC(=O)N1C(C(N)=O)CCC12CNC2=O (single isomer, unassigned) [BE] | – | – | > 100 | − (−=0) | Emax ([1]; 50 μM glutamate): < 100%; EC50 [12]: < 1 nM; Emax [12]: < 100%
CC(C)(C)OC(=O)N1CC2(CN(OCc3ccccc3)C2=O)CC12CN(OCc1ccccc1)C2=O (single isomer, unassigned) [AX, tert-butyl 2,8-bis(benzyloxy)-1,7-dioxo-2,8,10-triazadispiro[3.1.36.24]undecane-10-carboxylate] | < 1 | + (<100%=+) | > 100 | − (−=0) | –
C[C@@H](O)[C@H](NC1CN(C(=O)OC(C)(C)C)C2(CNC2=O)C1)C(N)=O (single isomer, unassigned) [CG] | < 1 | + (<100%=+) | > 100 | − (−=0) | Emax ([3]; 50 μM glutamate): 0%
